Experimental data taken from patent US5962434A, “Compounds for stimulating nerve growth” (The Johns Hopkins University School of Medicine, priority 1996, dated 1999).

Target: T1, myelin-associated glycoprotein (MAG) (Rattus norvegicus, UniProt P07722)
T1 sequence (P07722 20-626): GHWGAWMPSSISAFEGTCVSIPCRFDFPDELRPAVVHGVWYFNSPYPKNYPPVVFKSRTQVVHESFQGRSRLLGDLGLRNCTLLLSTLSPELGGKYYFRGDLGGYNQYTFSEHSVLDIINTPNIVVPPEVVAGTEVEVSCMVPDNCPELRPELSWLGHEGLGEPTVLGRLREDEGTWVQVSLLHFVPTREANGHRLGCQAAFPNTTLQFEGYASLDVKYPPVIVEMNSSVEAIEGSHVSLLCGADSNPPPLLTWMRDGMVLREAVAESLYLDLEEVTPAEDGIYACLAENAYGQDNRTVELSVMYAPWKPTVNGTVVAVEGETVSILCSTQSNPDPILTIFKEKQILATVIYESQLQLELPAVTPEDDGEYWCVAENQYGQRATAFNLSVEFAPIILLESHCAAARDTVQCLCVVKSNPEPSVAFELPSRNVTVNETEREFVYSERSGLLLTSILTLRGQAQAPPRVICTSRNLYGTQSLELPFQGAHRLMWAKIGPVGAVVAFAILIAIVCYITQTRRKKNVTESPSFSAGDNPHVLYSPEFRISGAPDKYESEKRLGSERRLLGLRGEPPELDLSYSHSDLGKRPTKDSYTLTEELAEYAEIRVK
Experiment: Adherence of MAG-transfected COS cells to microwell surfaces on which gangliosides/glycolipids were adsorbed (LDH activity)
Details: for adhesion of MAG-transfected cells after neuraminidase treatment of the absorbed ganglioside: Vibrio cholerae neuraminidase-treated microwells; for MAG-transfected COS cells added that adhered: ganglioside-absorbed wells; for support of MAG-mediated cell adhesion: structure-function comparison, FIGS. 1C and 2

| Substance | adhesion of MAG-transfected cells after neuraminidase treatment of the absorbed ganglioside | adherence of MAG-transfected COS cells to ganglioside-absorbed surface (artificial membrane monolayer with phosphatidylcholine and cholesterol, FIG. 1B) | binding compared to GM1b | adherence of control-transfected COS cells (control-transfected COS cells, FIG. 1B) | adhesion of MAG-transfected cells to control-treated microwells (control-treated (no neuraminidase) microwells, FIG. 1D) | MAG-transfected COS cells added that adhered | support of MAG-mediated cell adhesion | potency at supporting MAG-mediated cell adhesion relative to GT1b (more potent than GT1b, FIGS. 2 and 3) [fold] |
| --- | --- | --- | --- | --- | --- | --- | --- | --- |
| NeuAc α2,3 Gal β1,3GalNAc β1,4(NeuAc α2,8 NeuAc α2,3) Gal β1, 4 Glc β1,1'Ceramide [GT1b] | did not support adhesion | adhered in a concentration-dependent manner | enhanced binding | did not bind | supported adhesion | 30-40% | supported MAG-mediated cell adhesion |  |
| NeuAc α2,3 Gal β1,3(NeuAc α2,6) GalNAc β1,4(NeuAc α2,8 NeuAc α2,3)Gal β1,4Glc β1,1'Ceramide [GQ1bα] | completely blocked |  |  |  |  | 70-80% |  | 8 |
| NeuAc α2,3 Gal β1,3 GalNAc β1,4(NeuAc α2,3)Gal β1, 4Glcβ1,1'Ceramide [GD1a] |  |  | enhanced binding |  |  |  | supported MAG-mediated cell adhesion |  |
